Literature values as cited in patent US20150320675A1, “Modified Release Osmotic Pump for PH-Responsive Drug Delivery” (UNIVERSITY OF UTAH RESEARCH FOUNDATION, priority 2013, published 2015).

Key:
[1] = molecular target: reverse transcriptase (Human immunodeficiency virus type 1 group M subtype B, UniProt P04585)
[2] = test system: entry

Compound: Cc1cc(C)cc(C(=O)c2c(C(C)C)c(=O)[nH]c(=O)n2CC2CC2)c1 [IQP-0528, 1-(cyclopropylmethyl)-6-(3,5-dimethylbenzoyl)-5-isopropylpyrimidine-2,4(1H,3H)-dione]
- non-nucleoside reverse transcriptase inhibition activity [1]: potent nanomolar
- entry inhibition activity [2]: potent nanomolar
